Values of other authors as cited in patent US20190255075A1, “TREATMENT OF PROSTATE CANCER” (priority 2018, published 2019).

Tests used:
prostate cancer cells = conditions: sirolimus used alone
[1] = system: hormone refractory prostate cancer; conditions: single agent

## CO[C@H]1C[C@@H]2CC[C@@H](C)[C@@](O)(O2)C(=O)C(=O)N2CCCC[C@H]2C(=O)O[C@H]([C@H](C)C[C@@H]2CC[C@@H](O)[C@H](OC)C2)CC(=O)[C@H](C)/C=C(\C)[C@@H](O)[C@@H](OC)C(=O)[C@H](C)C[C@H](C)/C=C/C=C/C=C/1C [Sirolimus, sirolimus]
Prostate cancer cells
  effect on prostate cancer cells: limited effects
[1]; of twelve evaluable patients with hormone refractory prostate cancer
  patients with positive outcomes: two
[1]; one of the two responding patients, with partial radiographic response
  decrease in PSA: 50%
